The term melting point denotes the temperature of the solid-liquid transition.

From a melting point compilation (Tetko et al.; mined from patent text by program, amines drawn as free bases though some values may be those of a salt) come the findings set out here.

Some results are limits rather than exact numbers.

As to `CN(CCCCC(=O)O)c1ccc([N+](=O)[O-])cc1C=O`, the melting point was in the range of 107 to 108 °C.

Take `COC(=O)COc1ccc(C(=O)CBr)cc1OC`: the melting point lay in the range of 105 to 107 °C.

Consider `CCC(C(=O)C(=O)O)c1ccccc1` (centres undefined), for which the melting point was in the range of 62 to 68 °C.

In turn, `c1cnc(N2CCN(CCCCn3cnc4ccccc43)CC2)nc1` gave a melting point of 85 to 88 °C.

`CCc1c(C#N)c(-c2ccc(C#N)cc2)c(C)n1Cc1cnc(Cl)c(COC(=O)CCC(=O)O)c1` yielded a melting point of 187 to 188 °C.

In turn, `CC(=O)NCc1ccc(CN2CCN(c3ccc(F)cc3[N+](=O)[O-])CC2)cc1` gave a melting point of 94.5 to 96 °C.

`CCCS(=O)(=O)Cc1cccc(-c2nc(=O)c3ccccc3s2)n1` yielded a melting point of 177 to 179 °C.

`CCCCOC(=O)[C@H]1CN(c2ccc(N3CCSCC3)c(F)c2)C(=O)O1` showed a melting point of 128 to 130 °C.

Turning to `CN1C(=O)CCc2c1ccc(Sc1cccc(C3(C)CC(O)CCO3)c1)c2F` (centres undefined), the melting point was in the range of 141 to 142 °C.

The compound `CCOC(=O)NC(=O)C(C#N)=CNNc1ccc(OC(F)F)cc1` showed a melting point of 144 to 146 °C.

`CC(=O)Nc1cccc(C(c2cccc(NC(C)=O)c2)(C(F)(F)F)C(F)(F)F)c1` gave a melting point of 309 to 311 °C.

With `COc1cc2c(cc1OCc1ccccc1)C(c1ccccc1)NCC2` (centres undefined), the melting point lay in the range of 123 to 125 °C.

For the compound `N#CCN(CP(=O)(Oc1ccccc1)Oc1ccccc1)N=O`, the melting point fell in the range of 76 to 78 °C.

Take `CCc1nnc(CCCOc2c(C)cc(N)c(C=NO)c2C)s1`: the melting point was 158 to 160 °C.

For the compound `CCn1cc(C(=O)Cl)c(=O)c2ccc(Cl)nc21`, the melting point was 186 to 188 °C.

For `CC(C)(OC(=O)CCc1nc(-c2ccc(Cl)cc2)co1)c1ccccc1`, the melting point lay within 94 to 95 °C.

Turning to `CS(=O)(=O)c1ccc(/C=C/c2nc3ccccc3n2-c2ccccn2)cc1`, the melting point is 152 to 154 °C.

`COC(=O)C1=C(C)NC(CC(=O)N2CCN(C3CCCC3)CC2)=C(C(=O)OC)C1c1c(Cl)cccc1Cl` (centres undefined) showed a melting point of 185 to 195 °C.

In the case of `CSc1ccc(Cl)c(C(=O)Nc2ccc(-n3nc(C4CC4)cc3C3CC3)cc2)c1`, the melting point fell in the range of 168 to 173 °C.

In the case of `COc1cc(NC(=O)CNC(=O)c2ccccc2)ccc1-c1cnco1`, the melting point lay within 243 to 245 °C.

Turning to `O=C(O)CCCCCN1CCN2c3ccccc3Cc3ccccc3C2C1` (centres undefined), the melting point lay within 181 to 182 °C.

On to `NC(=O)Nc1nc(CC(=O)Nc2cccc(C(F)(F)F)c2)cs1`, for which the melting point lay in the range of 195 to 197 °C.

`CC(C)NCC(O)c1ccc(OCc2ccccc2)c(C(N)=O)c1` (centres undefined) returned a melting point of 135 to 138 °C.

On to `CCC(=O)C1=C(O)CC(c2c(C)c(C)c(C)c(C)c2C)CC1=O` (centres undefined), for which the melting point was 84 °C.

Regarding `NCc1ccc(CC(=O)Nc2cccc(C(=O)NCCC(=O)O)c2)cc1`, the melting point fell in the range of 108 to 109 °C.

With `CCn1c(=O)n(OCc2ccccc2)c(=O)c2cc(F)c(N3CCCC3)nc21`, the melting point lay in the range of 189 to 190 °C.

For the compound `O=[N+]([O-])c1cccc2c(Cl)c(Br)cnc12`, the melting point lay within 135 to 136 °C.

Compound `O=C1NC(=O)c2c1c(-c1c(Cl)cccc1Cl)cc1c2c2cc(O)ccc2n1CCO` came in with a melting point of 254 to 257 °C.

`CC(=O)N1CCC(C(=O)c2ccc(N3CCCCC3)cc2)CC1` registered a melting point of 122 to 125 °C.

`N#Cc1c2n(c3ccccc13)CCNCC2` gave a melting point of 161 to 164 °C.

`CC(C)CNc1c([N+](=O)[O-])cnc2cccnc12` gave a melting point of 97 to 99 °C.

The compound `CC(C)c1nc(C(C)C)c(CSc2c(F)c(F)cc(F)c2F)c(-c2ccc(F)cc2)c1CO` had a melting point of 109 to 110 °C.

On to `CCOC(=O)c1c(C(=O)O)c2c(OCc3ccccc3)ccc3c(CC)c(-c4ccc(OCc5ccccc5)cc4)c1n32`, for which the melting point lay within 171 to 173 °C.

Regarding `CCCO[C@@H](Cc1ccc(OCCc2nc(-c3ccc(-c4ccccc4)cc3)oc2C)c2ccsc12)C(=O)O`, the melting point lay in the range of 147 to 151 °C.

`C#CCOc1cc2c(cc1F)CCC2CCNC(=O)CC` (centres undefined) showed a melting point of 78 to 81 °C.

In the case of `N#Cc1cnc2ccc(/C=C/CCN3CCOCC3)cc2c1Nc1ccc(Cl)cc1Cl`, the melting point is 115 to 116 °C.

In the case of `COc1ccc(C(=O)C2=C(c3ccccc3)c3ccccc3C2)cc1`, the melting point was 114 to 115 °C.

The compound `O=C(O)COc1cccc2c(CNC(=O)COc3ccccc3)coc12` registered a melting point of 156 to 157 °C.

In turn, `C[C@@H]1c2ccccc2-c2ccc(Cl)cc2N1C(=O)c1ccc(O)cc1` had a melting point of 274 to 276 °C.

Regarding `Cc1ccc(S(=O)(=O)NC(CC(N)=O)C(=O)O)cc1` (centres undefined), the melting point is 198 to 200 °C.

`Cc1c(C=C2CCc3cc4ccccc4n3C2=O)ncn1C(c1ccccc1)(c1ccccc1)c1ccccc1` yielded a melting point of 214 to 217 °C.

`Cc1cc(C)c([N+](=O)[O-])cc1N1CCC1=O`: the melting point amounted to 102 °C.

`CC1(C)[C@@H]2CC3[C@H](C(N)=O)[C@@]3(C)C[C@@H]21` (some centres undefined) returned a melting point of 122 °C.

In turn, `CCOc1ccc(-c2ccc3c(c2)C=C(C(=O)Nc2ccc(CN(C)C4CCOCC4)cc2)CCN3C)cc1` came in with a melting point of 150 to 152 °C.

In turn, `CCCCc1nc2c(N)nc3ccc(OCc4ccccc4)cc3c2n1CCCCN` registered a melting point of 161 to 164 °C.

For `O=C(c1ccc(Cl)cc1)N1CCc2cc(S(=O)(=O)N3CC(c4ccccc4)NC3=O)ccc21` (centres undefined), the melting point worked out at 235 °C.

In the case of `Cc1c(NC(=O)c2ccc(-c3ccc(F)cc3)cc2)ccc2cc(CN3CCOCC3)cnc12`, the melting point fell in the range of 176 to 178 °C.

Regarding `CC1(C)CC(=O)N(CC(COc2ccc(-c3ccc(C#N)cc3)cc2)N(O)C=O)C(=O)C1` (centres undefined), the melting point turned out to be 121 °C.

On to `COCCOc1ccc(CCCOC(=O)NS(=O)(=O)NCCc2ccccn2)c(Oc2ncc(C(F)(F)F)cc2Cl)c1`, for which the melting point was 91 to 93 °C.

As for `C=Cc1ccc(-c2ccccc2F)cc1`, the melting point was determined as 38 °C.

Compound `CCOC(=O)c1[nH]c(=O)c(CC(C)C)[n+]([O-])c1N` returned a melting point of 179 to 181 °C.

For the compound `CCCCCCCC(=O)c1ccc(CCC(CCOC(C)=O)(CCOC(C)=O)NC(C)=O)cc1`, the melting point lay in the range of 83 to 86 °C.

In turn, `Clc1ccc(Nc2nc3ccccc3c3[nH]c(C4CCCCC4)nc23)cc1Cl` yielded a melting point of 237 to 240 °C.

Compound `CC(O)C(=O)c1ccc(F)cc1F` (centres undefined) had a melting point of 49 to 51 °C.

On to `N#Cc1c(N)nc2ccc(N3CCN(Cc4ccccc4)CC3)cc2c1NCc1ccccc1`, for which the melting point worked out at 202 °C.

Compound `COc1ccc2sc(=O)n(C(C)=O)c2c1` registered a melting point of 112 to 113 °C.

Consider `CNC(=O)[C@H]1O[C@@H](n2cnc3c(NCc4cc(Cl)ccc4OCc4ccccc4)ncnc32)[C@H](O)[C@@H]1N`, for which the melting point lay within 114 to 115 °C.

In turn, `CCCCOc1nc(N)c2[nH]c(=O)n(CCSc3cccc(CC(=O)O)c3)c2n1` had a melting point of 205 to 207 °C.

`Cc1nc(N)c2nc(CO)n(NC3CCC3)c2c1C` gave a melting point of 211 to 213 °C.

Turning to `COc1cc(C(=O)c2c(N)sc3c2CCN(Cc2ccccc2)C3)ccc1OC(C)C`, the melting point lay in the range of 113 to 114 °C.

For the compound `OCc1cn(Cc2ccc(OCc3csc(-c4ccccc4)n3)cc2)nc1-c1cccs1`, the melting point is 147 to 148 °C.

Compound `Clc1ccc(-n2nc3c(c2Cl)CCCCC3)cc1` yielded a melting point of 59 to 61 °C.

In turn, `O=S1(=O)CCON=C1c1nc2ccccc2s1` yielded a melting point of 226 to 227 °C.

For the compound `O=C(/C=C/c1ccc(NC(=O)Cc2cccc3ccccc23)cc1)NO`, the melting point lay within 222 to 224 °C.

Turning to `CC1CC(=O)NN=C1c1ccc(N)c([N+](=O)[O-])c1` (centres undefined), the melting point lay in the range of 234 to 238 °C.

With `CC(=O)Nc1cccc(OC2CCNCC2)c1`, the melting point was in the range of 164 to 165 °C.

In turn, `CCCCCCCNC(=O)Nc1ccccc1C(=O)NC1CCN(C(=O)Oc2ccccc2)CC1` gave a melting point of 142 to 144 °C.

Regarding `CCC(=O)NC1Cc2cccc3ccc(OC)c(c23)C1` (centres undefined), the melting point is 184 to 186 °C.

`N#Cc1c(-c2cccc(F)c2)c(Cl)n2c1CNCC2` gave a melting point of 104 to 106 °C.

The compound `Oc1ccccc1-c1nc(-c2ccccc2O)n(Cc2cccnc2)n1` had a melting point of 174 to 176 °C.

As to `Cc1cn(C(C)C(N)=O)nc1-c1ccccc1` (centres undefined), the melting point is 99 to 101 °C.

In turn, `CC(C)(C)OC(=O)Nc1ccccc1O` gave a melting point of 145 °C.

`Nc1ccc2sc3ccccc3c(=O)c2c1` displayed a melting point of 227 to 229 °C.

Compound `CO[C@@H]1[C@@H](OC)[C@H](C)O[C@@H](OC(=O)Nc2ccc(-c3ccnc(-c4ccc(C(F)(F)F)cc4)n3)cc2)[C@@H]1OC` displayed a melting point of 176 to 179 °C.

Compound `Nc1nc2ccccc2c2c1ncn2CCCCNC(=O)N1CCOCC1` came in with a melting point of 177 to 180 °C.

For `COC(=O)C1=C(C)NC(C)=C(/C=C/S(=O)(=O)N(C)Cc2ccccc2)C1c1cccc([N+](=O)[O-])c1` (centres undefined), the melting point was in the range of 208 to 210 °C.

As to `COc1cc(NOC(C)=O)cc(OC)c1`, the melting point lay in the range of 163 to 165 °C.

Compound `O=S(=O)(Cl)c1cc(Cl)c(Cl)c(S(=O)(=O)Cl)c1` had a melting point of 114 to 115 °C.

`O=[N+]([O-])c1cn2c(n1)O[C@@H](COc1ccc(N3CCC(OCc4ccc(OC(F)(F)F)cc4)CC3)cc1)C2` came in with a melting point of 188 to 189 °C.

`Cc1cc(O)c(S(C)(=O)=O)cc1C(=O)N=C(N)N`: the melting point is > 260 °C.

Turning to `O=C(NCc1ccccn1)c1nc(-c2ccccc2)c(-c2ccc(=O)n(Cc3ccccc3)n2)s1`, the melting point was in the range of 172 to 174 °C.

In the case of `O=C1Cc2cc(-n3cccc3)ccc2C(=O)N1`, the melting point was in the range of 212 to 213 °C.

As for `COC(=O)c1nc2cc(Cl)c3cccnc3c2o1`, the melting point fell in the range of 214 to 215 °C.

For `N=C(Cc1ccccc1)Nc1ncccc1OCc1ccccc1Br`, the melting point lay within 158 to 169 °C.

Take `Brc1ccc2c(c1)OCCN2C1CCOCC1`: the melting point was 66.2 °C.

Regarding `c1cnc2ncncc2c1`, the melting point was 249 to 252 °C.

The compound `Cn1cc2c(cc1=O)CCCC2=O` had a melting point of 94 to 97 °C.

Take `Cc1ccc(C(=O)NC(=O)N2CC2C#N)cc1` (centres undefined): the melting point lay in the range of 177 to 180 °C.

The compound `CC(=O)Oc1ccc(C(=O)c2ccc(C)c(OC(C)=O)c2)cc1` gave a melting point of 60 to 64 °C.
